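48-hour exposure; five concentrations; linearly interpolated endpoints. GI50 = concentration required for 50% inhibition of growth.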 Active and inactive are the calls of the source. Cut-off read from the data, not from the text of the source: active = GI50 up to about 1.1 µM and inactive = higher.
Columns and labels:
Test in all cases: NCI anticancer screen, dose series, 48 h
[1] = system: A549
[2] = system: CAKI-1
[3] = system: CCRF-CEM
[4] = system: DU-145
[5] = system: HCT-116
[6] = system: HCT-15
[7] = system: HT-29
[8] = system: Hs-578T
[9] = system: KM12
[10] = system: LOX IMVI
[11] = system: MDA-N
[12] = system: NCI-H23
[13] = system: NCI/ADR-RES
[14] = system: PC-3
[15] = system: SF-268
[16] = system: SF-295
[17] = system: SK-MEL-2
[18] = system: SK-OV-3
[19] = system: SN12C
[20] = system: TK-10

Structure (SMILES) | GI50 [1] | GI50 [2] | GI50 [3] | GI50 [4] | GI50 [5] | GI50 [6] [µM] | GI50 [7] | GI50 [8] | GI50 [9] | GI50 [10] | GI50 [11] | GI50 [12] | GI50 [13] | GI50 [14] | GI50 [15] | GI50 [16] | GI50 [17] | GI50 [18] | GI50 [19] | GI50 [20]
Nc1ncnc2c1nc(Cl)n2C1OC(CO)C(O)C1O (configuration not stated) | 0.991 µM (active) | 1.21 µM (inactive) | 0.607 µM (active) | 0.714 µM (active) | 0.352 µM (active) | 0.283 | 0.649 µM (active) | 15.3 µM (inactive) | 2.04 µM (inactive) | 0.424 µM (active) | 2.94 µM (inactive) | 1.95 µM (inactive) | 1.41 µM (inactive) | 1.44 µM (inactive) | 12.2 µM (inactive) | 5.11 µM (inactive) | 2.02 µM (inactive) | 2.74 µM (inactive) | 1.88 µM (inactive) | 0.502 µM (active)
O=C1/C(=C\c2ccc([N+](=O)[O-])cc2)CS(=O)(=O)C/C1=C/c1ccc([N+](=O)[O-])cc1 | 1.85 µM (inactive) | 1.4 µM (inactive) | 0.264 µM (active) | 2.92 µM (inactive) | 0.288 µM (active) | 0.117 | 0.357 µM (active) | 1.35 µM (inactive) | 0.327 µM (active) | 0.597 µM (active) | 0.35 µM (active) | 0.904 µM (active) | 0.161 µM (active) | 0.392 µM (active) | 0.773 µM (active) | 1.74 µM (inactive) | 1.17 µM (inactive) | 4.8 µM (inactive) | – | 0.787 µM (active)
C=CCCCCOC1C=CC(OC(C)=O)C(COC(C)=O)O1 (configuration not stated) | > 100 µM (inactive) | > 100 µM (inactive) | > 100 µM (inactive) | > 100 µM (inactive) | > 100 µM (inactive) | > 100 | > 100 µM (inactive) | 0.324 µM (active) | > 100 µM (inactive) | > 100 µM (inactive) | > 100 µM (inactive) | > 100 µM (inactive) | > 100 µM (inactive) | > 100 µM (inactive) | > 100 µM (inactive) | > 100 µM (inactive) | > 100 µM (inactive) | > 100 µM (inactive) | > 100 µM (inactive) | > 100 µM (inactive)
COc1ccc(/C=C2\C[C@H]3[C@@H]4CC=C5C[C@@H](O)CC[C@]5(C)[C@H]4CC[C@]3(C)\C2=N\O)cc1 | 7.98 µM (inactive) | 2.58 µM (inactive) | 4.58 µM (inactive) | 22.4 µM (inactive) | 5.35 µM (inactive) | 6 | 16.1 µM (inactive) | 10 µM (inactive) | 16.8 µM (inactive) | 11.6 µM (inactive) | 18.8 µM (inactive) | 16.9 µM (inactive) | 19.4 µM (inactive) | 8.45 µM (inactive) | 4.95 µM (inactive) | 6.98 µM (inactive) | 15.6 µM (inactive) | 34.9 µM (inactive) | 18.1 µM (inactive) | 27.6 µM (inactive)
O=C1C(N2CCCC2)=CC(=O)c2c(O)c(N3CCCC3)c(Cl)c(O)c21 | > 10 µM (inactive) | > 10 µM (inactive) | > 10 µM (inactive) | > 10 µM (inactive) | > 10 µM (inactive) | – | > 10 µM (inactive) | > 10 µM (inactive) | > 10 µM (inactive) | > 10 µM (inactive) | > 10 µM (inactive) | > 10 µM (inactive) | > 10 µM (inactive) | > 10 µM (inactive) | > 10 µM (inactive) | > 10 µM (inactive) | > 10 µM (inactive) | > 10 µM (inactive) | > 10 µM (inactive) | > 10 µM (inactive)
COC(=O)c1c(C#N)[nH]c(-c2ccsc2)c1C(=O)OC | > 100 µM (inactive) | 33.4 µM (inactive) | > 100 µM (inactive) | > 100 µM (inactive) | > 100 µM (inactive) | – | > 100 µM (inactive) | > 100 µM (inactive) | > 100 µM (inactive) | > 100 µM (inactive) | > 100 µM (inactive) | > 100 µM (inactive) | > 100 µM (inactive) | 70.6 µM (inactive) | > 100 µM (inactive) | > 100 µM (inactive) | > 100 µM (inactive) | > 100 µM (inactive) | > 100 µM (inactive) | > 100 µM (inactive)
